From patent US12643910B2, “Substituted pyrazolo[3,4-b]pyridines as ectonucleotide pyrophosphatase/phosphodiesterase 1 (ENPP1) modulators” (SANFORD BURNHAM PREBYS MEDICAL DISCOVERY INSTITUTE, priority 2019, dated 2026) come the findings set out here.

The target in experiment [1] is T1, ENPP3 (Homo sapiens, UniProt O14638).
T1 sequence (O14638 1-875): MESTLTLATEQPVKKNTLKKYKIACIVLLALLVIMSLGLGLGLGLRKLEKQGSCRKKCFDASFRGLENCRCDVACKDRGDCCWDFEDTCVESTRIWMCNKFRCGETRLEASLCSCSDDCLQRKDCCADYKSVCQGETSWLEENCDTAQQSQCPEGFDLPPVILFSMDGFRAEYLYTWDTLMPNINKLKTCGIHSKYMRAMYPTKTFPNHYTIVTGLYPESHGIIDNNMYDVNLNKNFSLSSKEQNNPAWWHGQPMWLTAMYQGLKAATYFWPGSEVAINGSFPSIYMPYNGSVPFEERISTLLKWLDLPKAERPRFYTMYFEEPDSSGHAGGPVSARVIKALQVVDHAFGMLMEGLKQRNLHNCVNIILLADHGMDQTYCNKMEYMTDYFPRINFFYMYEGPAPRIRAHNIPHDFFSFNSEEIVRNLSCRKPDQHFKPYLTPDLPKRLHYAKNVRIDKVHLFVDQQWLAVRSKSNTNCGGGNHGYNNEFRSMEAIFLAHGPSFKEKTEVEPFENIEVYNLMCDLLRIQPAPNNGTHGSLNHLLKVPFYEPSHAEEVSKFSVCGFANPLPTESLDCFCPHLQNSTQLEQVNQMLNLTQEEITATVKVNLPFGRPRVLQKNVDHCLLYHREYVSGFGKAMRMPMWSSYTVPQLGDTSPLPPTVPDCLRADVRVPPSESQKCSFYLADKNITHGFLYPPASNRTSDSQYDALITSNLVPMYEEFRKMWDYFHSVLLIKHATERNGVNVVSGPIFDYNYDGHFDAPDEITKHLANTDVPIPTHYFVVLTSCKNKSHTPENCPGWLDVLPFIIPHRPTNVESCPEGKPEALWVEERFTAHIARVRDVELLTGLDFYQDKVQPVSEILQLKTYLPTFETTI
The experiment is described as follows: ENPP3 Km ATP assay. It counts as biochemical. Conditions: ATP at Km.

Experiment [2] has as its target T2, human ENPP1 (Homo sapiens, UniProt P22413).
T2 construct: made in house
T2 sequence (P22413 1-925): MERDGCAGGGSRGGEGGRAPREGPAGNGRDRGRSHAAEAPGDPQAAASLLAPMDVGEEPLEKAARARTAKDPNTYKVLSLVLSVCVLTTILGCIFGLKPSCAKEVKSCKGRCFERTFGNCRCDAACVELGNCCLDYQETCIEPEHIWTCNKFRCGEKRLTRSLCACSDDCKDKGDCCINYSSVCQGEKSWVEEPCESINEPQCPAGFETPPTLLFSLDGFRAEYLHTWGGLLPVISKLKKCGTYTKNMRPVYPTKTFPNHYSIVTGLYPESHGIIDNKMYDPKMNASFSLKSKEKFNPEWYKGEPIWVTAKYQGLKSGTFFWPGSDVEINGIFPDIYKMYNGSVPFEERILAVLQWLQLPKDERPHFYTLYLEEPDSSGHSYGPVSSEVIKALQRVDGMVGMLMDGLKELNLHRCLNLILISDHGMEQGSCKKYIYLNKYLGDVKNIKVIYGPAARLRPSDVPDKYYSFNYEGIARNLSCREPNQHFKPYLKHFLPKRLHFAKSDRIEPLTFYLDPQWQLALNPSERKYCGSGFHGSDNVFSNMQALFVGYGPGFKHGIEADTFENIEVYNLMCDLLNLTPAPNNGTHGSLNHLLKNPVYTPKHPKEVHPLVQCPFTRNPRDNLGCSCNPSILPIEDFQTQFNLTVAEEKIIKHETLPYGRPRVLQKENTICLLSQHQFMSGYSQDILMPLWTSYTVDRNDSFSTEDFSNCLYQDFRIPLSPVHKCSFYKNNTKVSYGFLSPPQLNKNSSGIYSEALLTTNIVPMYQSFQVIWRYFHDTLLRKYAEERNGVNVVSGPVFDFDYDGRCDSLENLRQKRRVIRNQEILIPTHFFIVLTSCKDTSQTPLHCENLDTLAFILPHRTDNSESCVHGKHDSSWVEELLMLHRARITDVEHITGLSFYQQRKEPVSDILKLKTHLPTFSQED
The experiment is described as follows: ENPP1 assay with ATP substrate (Transcreener AMP2/GMP2 TR-FRET). Particulars: 1 hour at room temperature. Type of experiment: biochemical. In outline:
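5′-AMP from ATP hydrolysis (300 nM ATP stock added; enzyme added as 8.5 μM stock) detected by competitive TR-FRET. Buffer: 50 mM Tris pH 7.5, 1 mM TCEP, 2 mM MgCl2, 0.005% Tween 20, 1% DMSO. Reaction 1 h at room temperature, EDTA stop. IC50 from 2-parameter variable-slope fit.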

For `Cc1csc2c(N3CCC(NC(=O)CCc4ccc(F)cc4)CC3)ncnc12` [Example 3.20, 3-(4-Fluorophenyl)-N-(1-(7-methylthieno[3,2-d]pyrimidin-4-yl)piperidin-4-yl)propanamide], the IC50 in experiment [1] and in experiment [2] was above 20 µM in each case.
With `Cc1csc2c(N3CCC(NC(=O)COc4ccc(F)cc4)CC3)ncnc12` [Example 3.22, 2-(4-Fluorophenoxy)-N-(1-(7-methylthieno[3,2-d]pyrimidin-4-yl)piperidin-4-yl)acetamide], the IC50 is above 20 µM in experiment [1] and 1 to 20 µM in experiment [2].
For the compound `Cc1csc2c(N3CCC(NCCOc4ccc(F)cc4)CC3)ncnc12` [Example 3.23, N-(2-(4-Fluorophenoxy)ethyl)-1-(7-methylthieno[3,2-d]pyrimidin-4-yl)piperidin-4-amine], the half-maximal inhibitory concentration (IC50) in experiment [1] and in experiment [2] was above 20 µM throughout.
As for `Cc1csc2c(N3CCC(Nc4ccncc4)CC3)ncnc12` [Example 3.24, N-(1-(7-Methylthieno[3,2-d]pyrimidin-4-yl)piperidin-4-yl)pyridin-4-amine], the IC50 in experiment [1] was above 20 µM; in experiment [2] it was 1 to 20 µM.
On to `Cc1csc2c(N3CCC(NCCc4ccncc4)CC3)ncnc12` [Example 3.25, 1-(7-Methylthieno[3,2-d]pyrimidin-4-yl)-N-(2-(pyridin-4-yl)ethyl)piperidin-4-amine], for which the values for the IC50 in experiment [1] and in experiment [2] were above 20 µM and 0.1 to 1 µM, respectively.
On the same counts, the results for `Cc1csc2c(N3CCC(NCCCc4cccnc4)CC3)ncnc12` [Example 3.26, 1-(7-Methylthieno[3,2-d]pyrimidin-4-yl)-N-(3-(pyridin-3-yl)propyl)piperidin-4-amine] are above 20 µM and 0.1 to 1 µM.
With `Cc1csc2c(N3CCC(NCCCc4ccccc4)CC3)ncnc12` [Example 3.27, 1-(7-Methylthieno[3,2-d]pyrimidin-4-yl)-N-(3-phenylpropyl)piperidin-4-amine], the results for the IC50 in experiment [1] and in experiment [2] were above 20 µM and 0.1 to 1 µM, respectively.
The corresponding values for `Cc1csc2c(N3CCC(NCCCc4ccc(Cl)cc4)CC3)ncnc12` [Example 3.28, N-(3-(4-Chlorophenyl)propyl)-1-(7-methylthieno[3,2-d]pyrimidin-4-yl)piperidin-4-amine] are above 20 µM and below 0.1 µM.
The corresponding values for `Cc1csc2c(N3CCC(NCCCc4ccncc4)C3)ncnc12` (stereo not drawn) [Example 3.29, 1-(7-Methylthieno[3,2-d]pyrimidin-4-yl)-N-(3-(pyridin-4-yl)propyl)pyrrolidin-3-amine] are above 20 µM and 0.1 to 1 µM.
The corresponding values for `Cc1cc(CCCNC2CCN(c3ncnc4c(C)csc34)CC2)ccn1` [Example 3.30, N-(3-(2-Methylpyridin-4-yl)propyl)-1-(7-methylthieno[3,2-d]pyrimidin-4-yl)piperidin-4-amine] are above 20 µM and 0.1 to 1 µM.
In the case of `COc1ccc(CCC(=O)NC2CCN(c3ncnc4c(C)csc34)CC2)cc1` [Example 3.31, 3-(4-Methoxyphenyl)-N-(1-(7-methylthieno[3,2-d]pyrimidin-4-yl)piperidin-4-yl)propanamide], the IC50 in experiment [1] and in experiment [2] was above 20 µM in each case.
Regarding `COc1ccc(CCCNC2CCN(c3ncnc4c(C)csc34)CC2)cc1` [Example 3.32, N-(3-(4-Methoxyphenyl)propyl)-1-(7-methylthieno[3,2-d]pyrimidin-4-yl)piperidin-4-amine], the IC50 was above 20 µM in experiment [1] and 0.1 to 1 µM in experiment [2].
On the same counts, the results for `Cc1csc2c(N3CCC(NCCCc4ccccc4F)CC3)ncnc12` [Example 3.33, N-(3-(2-Fluorophenyl)propyl)-1-(7-methylthieno[3,2-d]pyrimidin-4-yl)piperidin-4-amine] are above 20 µM and 0.1 to 1 µM.
In the case of `Cc1cnccc1CCC(=O)NC1CCN(c2ncnc3c(C)csc23)CC1` [Example 3.34, 3-(3-Methylpyridin-4-yl)-N-(1-(7-methylthieno[3,2-d]pyrimidin-4-yl)piperidin-4-yl)propanamide], the IC50 in experiment [1] and in experiment [2] was above 20 µM in each case.
As to `Cc1cnccc1CCCNC1CCN(c2ncnc3c(C)csc23)CC1` [Example 3.35, N-(3-(3-Methylpyridin-4-yl)propyl)-1-(7-methylthieno[3,2-d]pyrimidin-4-yl)piperidin-4-amine], the IC50 in experiment [1] was above 20 µM; in experiment [2], 0.1 to 1 µM.
On the same counts, the results for `Cc1csc2c(N3CCC(NC(=O)CCc4ccnc(F)c4)CC3)ncnc12` [Example 3.36, 3-(2-Fluoropyridin-4-yl)-N-(1-(7-methylthieno[3,2-d]pyrimidin-4-yl)piperidin-4-yl)propanamide] are above 20 µM and 1 to 20 µM.
The corresponding values for `Cc1csc2c(N3CCC(NCCCc4ccnc(F)c4)CC3)ncnc12` [Example 3.37, N-(3-(2-Fluoropyridin-4-yl)propyl)-1-(7-methylthieno[3,2-d]pyrimidin-4-yl)piperidin-4-amine] are above 20 µM and 0.1 to 1 µM.
In the case of `Cc1csc2c(N3CCC(NC(=O)CCc4ccncc4F)CC3)ncnc12` [Example 3.38, 3-(3-fluoropyridin-4-yl)-N-(1-(7-methylthieno[3,2-d]pyrimidin-4-yl)piperidin-4-yl)propanamide], the IC50 in experiment [1] and in experiment [2] was above 20 µM each time.
For the compound `Cc1csc2c(N3CCC(NC(=O)CCc4cccc(F)c4)CC3)ncnc12` [Example 3.39, 3-(3-Fluorophenyl)-N-(1-(7-methylthieno[3,2-d]pyrimidin-4-yl)piperidin-4-yl)propanamide], the IC50 in experiment [1] and in experiment [2] was above 20 µM each time.
As for `Cc1csc2c(N3CCC(NCCCc4ccncc4F)CC3)ncnc12` [Example 3.40, N-(3-(3-Fluoropyridin-4-yl)propyl)-1-(7-methylthieno[3,2-d]pyrimidin-4-yl)piperidin-4-amine], the IC50 in experiment [1] was above 20 µM; in experiment [2] it was 0.1 to 1 µM.
`Cc1csc2c(N3CCC(NCCCc4cccc(F)c4)CC3)ncnc12` [Example 3.41, N-(3-(3-Fluorophenyl)propyl)-1-(7-methylthieno[3,2-d]pyrimidin-4-yl)piperidin-4-amine]: the IC50 in experiment [1] is above 20 µM; in experiment [2], 0.1 to 1 µM.
`Cc1csc2c(N3CCC(NCc4ccc(F)cc4)CC3)ncnc12` [Example 3.42, N-(4-Fluorobenzyl)-1-(7-methylthieno[3,2-d]pyrimidin-4-yl)piperidin-4-amine]: the results for the IC50 in experiment [1] and in experiment [2] were above 20 µM and 1 to 20 µM, respectively.
For the compound `Cc1csc2c(N3CCC(NC(=O)Cc4ccc(F)cc4)CC3)ncnc12` [Example 3.43, 2-(4-Fluorophenyl)-N-(1-(7-methylthieno[3,2-d]pyrimidin-4-yl)piperidin-4-yl)acetamide], the values for the half-maximal inhibitory concentration (IC50) in experiment [1] and in experiment [2] were above 20 µM and 1 to 20 µM, respectively.
The corresponding values for `Cc1csc2c(N3CCC(NCCc4ccc(F)cc4)CC3)ncnc12` [Example 3.44, N-(4-Fluorophenethyl)-1-(7-methylthieno[3,2-d]pyrimidin-4-yl)piperidin-4-amine] are above 20 µM and 0.1 to 1 µM.

What is called IC50 is the concentration at which inhibition is half-maximal.
